# Measurements reported in patent US8906925B2, “Pyrido[4,3-B]indoles containing rigid moieties” (Medivation Technologies, Inc., priority 2008, dated 2014).
# Columns and labels:
# male Wistar rat = experiment: Conditioned avoidance response (CAR) model; assay type: in vivo; details: 0.3 mg/kg, s.c.
# Procedure: All currently approved antipsychotic agents (typical and atypical) are known to have the ability to selectively suppress conditioned avoidance response (CAR) behavior in the rat. This evidence makes CAR one of the primary tests to assess antipsychotic activity of novel compounds.
# The effects of Compound Nos. 83, 88 and 90, at concentrations including 0.1, 0.3, 1, 3, 10 and 20 mg/kg, p.o., in the conditioned avoidance response model were assessed in the male Wistar rat. Risperidone (0.3 mg/kg, s.c.) was used in the present study as a positive reference compound.
# For each testing session, animals were first placed for a 4-min. habituation period in a shuttlebox with an electrified grid floor. Then, rats were submitted to 30 trials spaced by intertribal intervals varying at random between 20 and 30 sec. Each trial consisted of a 10-sec. light stimulus (conditioned stimulus, CS) followed by a 10-sec. electric foot shock (unconditioned stimulus, US) in presence of the light presented in the compartment where the rat is located. If the animal moved to the other compartment during the initial 10-sec. of the trial, the light was terminated (no shock was delivered) and the response was recorded as an avoidance response. If the rat changed compartment during the foot shock, the light and the shock were terminated and the response was recorded as an unconditioned response. […] If a response was made during an intertrial interval, the response was recorded as an intertrial crossing. Training was performed 5 days per week with one session of 30 trials per day, until rats reached the performance criterion of 80% of avoidance response on at least two consecutive daily sessions. […] A minimal wash-out period of 48 hours was allowed between 2 treatments. During the wash-out period, animals were trained until they recovered an avoidance performance of at least 80%.
# Statistical analysis was performed using a Friedman two-way ANOVA by ranks followed by the Wilcoxon matched-pairs signed-ranks test to test each dose of the test compound administered versus vehicle control treated rats.
# histamine receptor H1 [1] = biological target: T1, histamine receptor H1 (Homo sapiens, UniProt P35367); experiment: Histamine H1 radioligand binding ([3H]Pyrilamine)
# How it was run: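 Values are percent inhibition of specific [3H]pyrilamine (1.2 nM) binding with compounds at ≤1 μM (1% DMSO vehicle); 180 min incubation at 25 °C, pH 7.4 Tris buffer, on CHO-expressed human H1 receptor; 1 μM pyrilamine defined nonspecific binding, bound ligand counted after filtration.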
# [2] = biological target: T2, human recombinant serotonin (5-Hydroxytryptamine) 5-HT6 receptor (Homo sapiens, UniProt P50406); experiment: Serotonin 5-HT6 radioligand binding ([3H]LSD)
# T2 construct: expressed in transfected cells; host or cells: human HeLa cells
# Procedure: Compounds of the invention were incubated with 1.5 nM [3H]Lysergic acid diethylamide (LSD) for 120 min. at 37° C. […] Receptor proteins were filtered and washed, the filters were then counted to determine [3H]LSD specifically bound. Compounds were screened at 1 μM or lower, using 1% DMSO as vehicle. Biochemical assay results are presented as the percent inhibition of specific binding in Table 10.
# [3] = biological target: human dopamine D2L receptor (Homo sapiens, UniProt P14416); experiment: Dopamine D2L radioligand binding ([3H]Spiperone); details: percent inhibition of specific binding, compound at 1 μM
# Text: Non-specific binding was estimated in the presence of […] Haloperidol. Receptor proteins were filtered and washed, the filters were then counted to determine [^3H]Spiperone specifically bound. […] Biochemical assay results are presented as the percent inhibition of specific binding in Table 9.
# [4] = biological target: T3, human recombinant serotonin (5-Hydroxytryptamine) 5-HT2C receptor (Homo sapiens, UniProt P28335); experiment: Serotonin 5-HT2C radioligand binding ([3H]Mesulergine); details: compound at 0.1 μM; read-out: Inhibition of ligand binding, Serotonin 5-HT2C (percent inhibition of specific binding)
# T3 construct: expressed in transfected cells; host or cells: Chinese hamster ovary (CHO-K1) cells
# T3 sequence (P28335 33-458): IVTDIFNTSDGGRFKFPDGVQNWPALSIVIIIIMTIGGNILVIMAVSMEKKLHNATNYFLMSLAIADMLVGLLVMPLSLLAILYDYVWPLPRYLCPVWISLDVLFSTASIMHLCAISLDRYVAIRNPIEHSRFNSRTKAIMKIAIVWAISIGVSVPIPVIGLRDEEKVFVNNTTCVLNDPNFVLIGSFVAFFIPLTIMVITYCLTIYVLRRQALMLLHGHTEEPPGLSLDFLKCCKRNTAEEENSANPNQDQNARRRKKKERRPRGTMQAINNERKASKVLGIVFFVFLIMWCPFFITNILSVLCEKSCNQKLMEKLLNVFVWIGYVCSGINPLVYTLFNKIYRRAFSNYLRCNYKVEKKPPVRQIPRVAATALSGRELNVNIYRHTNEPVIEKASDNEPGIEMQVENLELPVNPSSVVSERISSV
# How it was run: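 Compounds tested at 1 μM or lower (1% DMSO vehicle) for displacement of 1 nM [3H]Mesulergine over 60 min at 25° C. Specific binding determined by filtration counting, with 1 μM Mianserin defining non-specific binding; values are percent inhibition.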
# [5] = biological target: T4, human recombinant serotonin (5-Hydroxytryptamine) 5-HT2A receptor (Homo sapiens, UniProt P28223); experiment: Serotonin 5-HT2A radioligand binding ([3H]Ketanserin)
# T4 construct: expressed in transfected cells; host or cells: Chinese hamster ovary (CHO-K1) cells
# Procedure: Compounds of the invention were incubated with 0.5 nM [^3H]Ketanserin for 60 min. at 25° C. Non-specific binding was estimated in the presence of 1 μM Mianserin. Receptor proteins were filtered and washed, the filters were then counted to determine [^3H]Ketanserin specifically bound.
# histamine receptor H1 [6] = biological target: T1, histamine receptor H1; experiment: Inhibition of binding of a ligand (Pyrilamine) to histamine receptor H1; details: as compared to the unsubstituted vinyl counterpart (106 vs compound 415; 85 vs compound 95)
# Procedure: The number and extent of undesirable side effects increases with increasing affinity for the H1 receptor Thus, in one aspect, compounds of the formulae herein display reduced, low or no affinity to histamine receptor H1. […] Inhibition of binding of a ligand to H1 for all variations detailed herein is determined by a suitable assay known in the art such as the assay described herein. […] In one variation, compounds of the formulae herein inhibit binding of a ligand to H1 by between about 50% to about 80%. […] In one variation, compounds of the formulae herein inhibit binding of Pyrilamine to H1 as determined in the assay described herein. In a further variation, percent inhibition of binding to H1 is measured by assays detailed herein.
# The binding properties of compounds disclosed herein to a panel of aminergic G protein-coupled receptors including adrenergic receptors, dopamine receptors, serotonin receptors, histamine receptors and an imidazoline receptor may be determined. Binding properties may be assessed by methods known in the art, such as competitive binding assays. In one variation, compounds are assessed by the binding assays detailed herein. […]
# In one aspect, DDT compounds display low affinity to histamine receptor H1. […] Inhibition of binding of a ligand to H1 for all variations detailed herein is determined by a suitable assay known in the art such as the assay described herein. […]
# C57B1I6J mice = experiment: Catalepsy in the mouse bar test (EPS model); assay type: in vivo; details: 2 mg/kg i.p.
# Text: Antipsychotic drugs are known to induce extrapyramidal syndrome (EPS) in animals and in humans. An animal model considered to be predictive of EPS is the mouse bar test, which measures cataleptic responses to pharmacological agents.
# Male C57B1I6J mice from Jackson Laboratories (Bar Harbor, Me.) were used. Mice were received at 6-weeks of age. Upon receipt, mice were assigned unique identification numbers (tail marked) and were group housed with 4 mice/cage in OptiMICE ventilated cages. All animals remained housed in groups of four during the remainder of the study. All mice were acclimated to the colony room for at least two weeks prior to testing and were subsequently tested at an average age of 8 weeks. During the period of acclimation, mice were examined on a regular basis, handled, and weighed to assure adequate health and suitability. Animals were maintained on a 12 h/12 h light/dark cycle. The room temperature was maintained between 20 and 23° C. with a relative humidity maintained between 30% and 70%. Chow and water were provided ad libitum for the duration of the study. In each test, animals were randomly assigned across treatment groups.
# The following compounds were used for this study. 1) Compound No. 83, 88 or 90 (0.03, 0.1, 0.3, 1, 3, 10, 30) was dissolved in 3% Tween in PBS and administered orally at a dose volume of 10 mL/kg; 2) Haloperidol (2 mg/kg) was dissolved in 10% DMSO and administered i.p. at a dose volume of 10 mL/kg.
# The front paws of a mouse were placed on a horizontal metal bar raised 2″ above a Plexiglas platform and time was recorded for up to 30 seconds per trial. The test ended when the animal's front paws returned to the platform or after 30 seconds. The test was repeated three times and the average of the three trials was reported as the intensity index of catalepsy. Antipsychotic agents such as haloperidol cause rigidity as a side effect. Animals treated with haloperidol will hold on to the bar without moving for several minutes. Mice were brought to the activity experimental room for at least 1 h acclimation to the experimental room conditions prior to testing. Following injection of either vehicle, Compound No. 83, 88 or 90, or haloperidol, catalepsy was assessed at 3 time points: 30 min, 1 h, and 3 h. At the end of each trial, the apparatus was thoroughly cleaned with 70% ethanol.
# Data were analyzed by analysis of variance (ANOVA) followed by post-hoc comparisons with Fisher Tests when appropriate. An effect was considered significant if p<0.05.
# T1 sequence (P35367 whole entry): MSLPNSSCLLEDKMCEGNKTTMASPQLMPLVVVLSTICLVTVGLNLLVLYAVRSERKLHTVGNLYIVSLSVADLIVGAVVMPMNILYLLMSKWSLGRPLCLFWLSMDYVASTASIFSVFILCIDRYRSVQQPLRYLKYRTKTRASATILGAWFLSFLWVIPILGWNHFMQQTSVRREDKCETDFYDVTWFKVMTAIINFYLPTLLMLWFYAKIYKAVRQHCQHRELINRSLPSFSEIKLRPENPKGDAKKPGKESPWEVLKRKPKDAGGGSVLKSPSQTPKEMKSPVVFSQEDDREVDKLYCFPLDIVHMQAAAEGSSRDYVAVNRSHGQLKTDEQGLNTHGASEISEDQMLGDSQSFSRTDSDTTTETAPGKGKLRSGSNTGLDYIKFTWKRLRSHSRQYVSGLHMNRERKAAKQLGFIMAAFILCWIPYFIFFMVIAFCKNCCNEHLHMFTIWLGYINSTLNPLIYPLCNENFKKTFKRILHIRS
# T2 sequence (P50406 whole entry): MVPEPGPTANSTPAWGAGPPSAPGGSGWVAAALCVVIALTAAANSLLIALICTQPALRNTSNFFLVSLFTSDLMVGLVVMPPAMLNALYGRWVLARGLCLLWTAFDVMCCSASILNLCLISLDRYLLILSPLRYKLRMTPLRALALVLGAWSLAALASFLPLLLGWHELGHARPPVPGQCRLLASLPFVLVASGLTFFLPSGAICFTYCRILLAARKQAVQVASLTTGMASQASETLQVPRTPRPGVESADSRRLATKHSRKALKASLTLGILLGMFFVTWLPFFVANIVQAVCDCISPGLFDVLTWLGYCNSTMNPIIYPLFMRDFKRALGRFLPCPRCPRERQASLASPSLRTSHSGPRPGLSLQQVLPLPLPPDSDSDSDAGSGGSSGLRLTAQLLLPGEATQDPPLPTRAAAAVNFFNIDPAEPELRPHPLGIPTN
# T4 sequence (P28223 whole entry): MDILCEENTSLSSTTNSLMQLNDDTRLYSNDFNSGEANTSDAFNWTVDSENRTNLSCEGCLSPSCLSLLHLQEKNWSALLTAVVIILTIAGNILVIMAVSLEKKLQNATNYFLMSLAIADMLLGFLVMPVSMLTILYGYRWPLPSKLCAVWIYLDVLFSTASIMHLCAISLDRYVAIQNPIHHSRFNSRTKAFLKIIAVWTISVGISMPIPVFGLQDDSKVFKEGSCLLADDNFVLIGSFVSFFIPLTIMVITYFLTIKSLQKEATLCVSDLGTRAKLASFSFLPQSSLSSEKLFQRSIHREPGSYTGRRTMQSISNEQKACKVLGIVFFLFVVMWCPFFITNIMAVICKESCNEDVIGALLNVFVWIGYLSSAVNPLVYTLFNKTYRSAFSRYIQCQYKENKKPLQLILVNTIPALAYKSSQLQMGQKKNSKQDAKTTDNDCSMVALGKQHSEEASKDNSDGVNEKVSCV
# human dopamine D2L receptor, sequence (P14416 whole entry): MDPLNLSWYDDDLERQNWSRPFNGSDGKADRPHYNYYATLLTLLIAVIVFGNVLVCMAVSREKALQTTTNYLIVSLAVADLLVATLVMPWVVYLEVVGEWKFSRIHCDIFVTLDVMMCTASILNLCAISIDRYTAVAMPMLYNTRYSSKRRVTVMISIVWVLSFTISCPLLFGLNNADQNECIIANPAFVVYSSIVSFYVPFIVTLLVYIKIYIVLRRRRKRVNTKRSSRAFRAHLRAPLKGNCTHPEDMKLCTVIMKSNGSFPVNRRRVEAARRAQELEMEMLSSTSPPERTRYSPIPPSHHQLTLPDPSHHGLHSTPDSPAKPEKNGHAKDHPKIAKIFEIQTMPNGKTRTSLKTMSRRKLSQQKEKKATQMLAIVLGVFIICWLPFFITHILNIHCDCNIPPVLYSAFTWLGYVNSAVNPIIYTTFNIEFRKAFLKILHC
smiles,measurement,setting,value
"Cc1nc2n(c(=O)c1CCN1CCC(c3noc4cc(F)ccc34)CC1)CCCC2 [risperidone, reference compound]","number of avoidance responses, change versus pretreatment",male Wistar rat,−61%
same,"number of intertrial crossings, change versus pretreatment",male Wistar rat,−69%
same,number of escape failures,"male Wistar rat; increased in 7/12 animals, 0±0 before treatment",4±1 escape failures
"C/C(=C\n1c2c(c3cc(C)ccc31)CN(C)CC2)c1ccc(C)nc1 [compound 85, (E)-2,3,4,5-tetrahydro-2,8-dimethyl-5-(2-(6-methylpyridin-3-yl)prop-1-enyl)-1H-pyrido[4,3-b]indole]","Histamine Binding (1 μM) H1, percent inhibition of specific binding",histamine receptor H1 [1]; 1 μM,13%
same,inhibition at 1 µM,"histamine receptor H1 [1]; read-out: Histamine Binding (1 μM) H1, percent inhibition of specific binding, 1 μM",9%
same,"Inhibition of ligand binding, Serotonin 5-HT6 (percent inhibition of specific binding)","[2]; compound at 0.1 μM, 0.1 µM",19%
same,inhibition at 0.1 µM,"[2]; compound at 0.1 μM, read-out: Inhibition of ligand binding, Serotonin 5-HT6 (percent inhibition of specific binding)",22%
same,inhibition at 1 µM,"[2]; compound at 1 μM, read-out: Inhibition of ligand binding, Serotonin 5-HT6 (percent inhibition of specific binding)",68%
same,"Inhibition of ligand binding, Dopamine D2L",[3]; 1 µM,57%
same,inhibition at 1 µM,"[3]; read-out: Inhibition of ligand binding, Dopamine D2L",43%
same,inhibition at 0.1 µM,[4],92%
same,"Inhibition of ligand binding, Serotonin 5-HT2A (percent inhibition of specific binding)","[5]; compound at 0.1 μM, 0.1 µM",98%
same,inhibition at 0.1 µM,"[5]; read-out: Inhibition of ligand binding, Serotonin 5-HT2A (percent inhibition of specific binding), compound at 0.1 μM",88%
same,binding affinity to H1,histamine receptor H1 [6],lower binding affinity to H1
"O=C(CCCN1CCC(O)(c2ccc(Cl)cc2)CC1)c1ccc(F)cc1 [Haloperidol, haloperidol, reference compound]",catalepsy (bar test),C57B1I6J mice,increased catalepsy
